“Also recorded” adds a separate entry of the source. Ends that are not written are not given here. Peptide text beside a SMILES is read from it. * marks the point of attachment. Cbz = O=C(OCc1ccccc1)*; CH2F = FC*
Columns and labels:
[1] = target: T1, APA (SK-RC-49/APA cells) (Homo sapiens, UniProt Q07075); assay: Phage binding specificity assay on SK-RC-49/APA cells; assay type: cell-based
T1 construct: The renal carcinoma cell line SK-RC-49 was transfected with an expression vector encoding full-length APA cDNA; expressed in transfected cells; host or cells: SK-RC-49 renal carcinoma cells, stably transfected (G418)
T1 sequence (Q07075 whole entry): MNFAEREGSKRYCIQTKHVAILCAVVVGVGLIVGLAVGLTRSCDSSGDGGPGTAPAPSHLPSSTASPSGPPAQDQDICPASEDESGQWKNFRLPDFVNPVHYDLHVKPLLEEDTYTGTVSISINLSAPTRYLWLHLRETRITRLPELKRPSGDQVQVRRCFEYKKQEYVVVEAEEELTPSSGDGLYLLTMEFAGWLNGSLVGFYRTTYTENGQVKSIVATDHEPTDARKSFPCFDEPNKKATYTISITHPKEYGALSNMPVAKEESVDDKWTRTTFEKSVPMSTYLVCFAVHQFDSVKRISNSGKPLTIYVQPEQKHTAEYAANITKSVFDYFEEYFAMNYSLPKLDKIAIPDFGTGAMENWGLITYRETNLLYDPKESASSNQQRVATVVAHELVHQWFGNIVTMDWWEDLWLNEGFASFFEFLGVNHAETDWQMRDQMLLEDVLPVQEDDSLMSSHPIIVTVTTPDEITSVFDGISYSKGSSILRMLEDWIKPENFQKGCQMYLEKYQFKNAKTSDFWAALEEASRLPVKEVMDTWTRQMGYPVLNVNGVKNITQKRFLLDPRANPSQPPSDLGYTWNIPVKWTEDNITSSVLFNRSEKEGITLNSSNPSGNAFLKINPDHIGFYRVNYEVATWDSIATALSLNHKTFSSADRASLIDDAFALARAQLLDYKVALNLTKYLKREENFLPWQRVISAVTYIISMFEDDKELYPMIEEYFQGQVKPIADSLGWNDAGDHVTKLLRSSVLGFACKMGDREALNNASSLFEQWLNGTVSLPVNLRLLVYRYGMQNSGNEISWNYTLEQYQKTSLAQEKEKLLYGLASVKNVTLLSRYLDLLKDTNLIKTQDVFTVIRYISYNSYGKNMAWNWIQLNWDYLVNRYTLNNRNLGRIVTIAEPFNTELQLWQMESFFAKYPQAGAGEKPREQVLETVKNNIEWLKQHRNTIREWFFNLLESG
Procedure: The cell binding assay was performed with an input of 10^9 TU as described for the cell panning. The specificity was confirmed by adding […] (SEQ ID NO:123) peptide to the binding medium in increasing concentrations. For phage binding on immunocaptured APA, wells were blocked for 1 h at room temperature with PBS/3% BSA and incubated with 10^9 TU for 1 h at room temperature in 50 μl PBS/3% BSA. After eight washes in PBS/1% BSA/0.01% Tween-20 and two washes in PBS, phage were rescued by adding 200 μl of exponentially growing K91Kan E. coli. Each experiment was repeated at least three times.

[2] = tested on: MDA-MB-435-derived tumor xenografts; assay: In vivo tumor homing of APA-binding phage; parameters: species or system mouse; conditions: 10^9 TU iv, 5 min circulation, FIG. 22
Procedure: MDA-MB-435-derived tumor xenografts were established in female nude mice 2 months old (Jackson Labs, Bar Harbor, Me.). Mice were anesthetized with Avertin and injected intravenously through the tail vein with 10^9 TU of the phage in a 200 μl volume of DMEM. The phage were allowed to circulate for 5 min, and the animals were perfused through the heart with 5 ml of DMEM. The tumor and brain were dissected from each mouse, weighed, and equal amounts of tissue were homogenized. The tissue homogenates were washed three times with ice-cold DMEM containing a proteinase inhibitor cocktail and 0.1% BSA. Bound phage were rescued and counted as described for cell panning. Fd-tet phage was injected at the same input as a control. The experiment was repeated twice. In parallel, part of the same tissue samples were fixed in Bouin solution, and imbedded in paraffin for preparation of tissue sections. An antibody to M-13 phage (Amersham-Pharmacia) was used for the staining.

[3] = target: T1, APA (SK-RC-49/APA cells); assay: Cell panning of CX3CX3CX3C phage library on SK-RC-49/APA cells (insert frequency); assay type: cell-based; conditions: for Round 2 (%): share of 18 randomly selected phage inserts
Procedure: A CX3CX3CX3C(C, cysteine; X, any amino acid) library was prepared (Rajotte et al., 1998). […] Cells were detached by incubation with 2.5 mM EDTA in PBS, washed once in binding medium (DMEM high glucose supplemented with 20 mM HEPES and 2% FCS), and resuspended in the same medium at a concentration of 2×10^6 cells/ml. 10^10 TU of phage were added to 500 μl of the cell suspension, and the mixture was incubated overnight (first round) or for 2 h (successive rounds) at 4° C. with gentle rotation. Cells were washed five times in binding medium at room temperature and resuspended in 100 μl of the same medium. Phage were rescued by adding 1 ml of exponentially growing K91Kan Escherichia coli bacteria and incubating the mixture for 1 h at room temperature. Bacteria were diluted in 10 ml of LB medium supplemented with 0.2 μg/ml tetracycline and incubated for another 20 min at room temperature. Serial dilutions were plated on LB plates containing 40 μg/ml tetracycline, and plates were incubated at 37° C. overnight before colonies were counted.
The CX3CX3CX3C phage library (10^10 transducing units [TU]) was preadsorbed on parental SK-RC-49 cells to decrease nonspecific binding. […] SK-RC-49/APA-bound phage were amplified and used for two consecutive rounds of selection.

[4] = tested on: HUVEC; assay: Apoptosis by chromatin fragmentation (agarose gel) in HUVEC; assay type: cell-based, human
Procedure: 10^6 HUVEC were treated with 15 μM of VISY antennapedia (penetratin) chimera or 15 μM of antennapedia peptide (pentratin) alone for 2-4 hours and chromatin fragmentation was analyzed by electrophoresis in an agarose gel.

[5] = target: T2, GST-β5 integrin (Homo sapiens, UniProt P18084); assay: Annexin V binding to GST-β5 cytoplasmic domain (ELISA), competition with VISY peptide; conditions: FIG. 20A
T2 construct: Plates were coated with GST fusion proteins of the cytoplasmic domains of various integrins and Annexin V was added to the plates
T2 sequence (P18084 743-799 limits assumed): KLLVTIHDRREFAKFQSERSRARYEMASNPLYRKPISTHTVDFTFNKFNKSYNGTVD
Procedure: Competitive binding assays were performed to examine the binding of Annexin V to β5 integrin and the effect of the VISY peptide. Plates were coated with GST fusion proteins of the cytoplasmic domains of various integrins and Annexin V was added to the plates. Binding of Annexin V was determined using anti-Annexin V antibodies. […] Calcium was used because Annexin V activity has been reported to be modulated by calcium. Binding of Annexin V to GST-β5 was blocked by addition of the VISY peptide (FIG. 20A).
A reciprocal study was performed, using Annexin V to coat plates and adding GST fusion proteins of integrin cytoplasmic domains. Binding was assessed using anti-GST fusion protein antibodies. […] In some studies, calcium ion appeared to interfere with the binding interaction between GST-β5 and Annexin V, with decreased binding observed in the presence of calcium (not shown).

[6] = tested on: mouse placenta; assay: In vivo biopanning for placenta homing phage with post-clearing (clone frequency per round); conditions: for frequency of phage clone in round III: round III of in vivo biopanning in pregnant mice; for frequency of phage clone in round IV: post-clearing in non-pregnant mouse
Procedure: Peptides homing to the mouse placenta were identified by a post-clearing protocol using a phage display library. A first round of biopanning was performed on pregnant mice. Samples of placenta were removed and phage rescued according to the standard protocols described above, with one modification. In the typical bipanning protocol, thousands of phage may be recovered from a single organ, tissue or cell type. Typically, between 200 and 300 individual colonies were selected from plated phage and these were amplified and pooled to form the phage display library for the second or third rounds of biopanning. In this example, all phage rescued from the first round of biopanning were amplified in bulk on solid medium and then pooled to form the phage display library for the second round of biopanning. That is, there was no restriction of the rescued phage from the first round of biopanning. This in vivo biopanning without restriction was performed for three rounds (rounds I-III), then a post-clearing procedure was used.
In the post-clearing protocol (round IV), phage were administered to a non-pregnant mouse. Phage that bound to tissues other than placenta were absorbed from the circulation. Remaining phage were recovered from the plasma of the non-pregnant mouse. This protocol was designed to isolate phage that bound to placenta but not to other mouse organs, tissues or cell types. The following placenta targeting peptides were identified, along with their frequencies. A search of the GenBank database disclosed that none of the SEQ ID NO's listed below was 100% homologous with any known peptide sequence.

[7] = tested on: placenta; assay: Validation of placenta homing phage: recovery from placenta of pregnant mice; assay type: in vivo, mouse; conditions: FIG. 1
Source text: FIG. 1. Validation of placenta homing phage. […] The placenta homing phage clones were: […] NO:43). The placenta homing peptides were validated in vivo by injection into pregnant mice and recovery from the placenta. […] The phage clones are identified as: […] NO:43).

[8] = tested on: placenta; assay: Effect of placental targeting peptide conjugates on fetal development in pregnant mice; assay type: in vivo, mouse; conditions: for effect on pregnancy: FITC conjugated, lower dosages (450 μg total); for effect on fetal development: protein and phage conjugated, higher dosages (800 to 1000 μg protein or 4.5×10^10 phage)
Source text: The CARAC peptide (SEQ ID NO:46), an adipose targeting peptide (FE, TREVHRS, SEQ ID NO:47) or fd-tet phage were used as non-placental targeting controls.

[9] = tested on: adipose tissue; assay: Validation of adipose homing phage by in vivo homing; parameters: species or system mouse; conditions: FIG. 2
Procedure: FIG. 2. Validation of adipose homing peptides. Phage bearing targeting peptides identified in Example 4 were injected into pregnant mice and their recovery from adipose tissue was compared to control fd-tet phage without targeting sequences.
The fat homing clones selected were: FA—KGGRAKD (SEQ ID NO:53), FC—RGEVLWS (SEQ ID NO:54), FE—TREVHRS (SEQ ID NO:47) and FX—VMGSVTG (SEQ ID NO:52).

[10] = FITC conjugates-I, 1 mouse iv (predominantly) or ip ~every other day, day 1-day 18, 9 times, Total 450 μg)
[11] = FITC conjugates-II, 1 mouse sc (predominantly) or iv ~every other day, day 4-day 17, 10 times, Total 1M (~1 mg)

With CYNLCIRECESICGADGACWTWCADGCSRSC the “displacement of phage binding by CPRECESIC peptide” value ([1]; data not shown) was “displaced”, the “enrichment in tumor xenografts compared to brain tissue” value [2] was “Neither CYNLCIRECESICGADGACWTWCADGCSRSC (SEQ ID NO:125) nor CLGQCASICVNDC (SEQ ID NO:126) phage showed any tumor-homing preference” and the “Round 2 (%)” value [3] was 50%. For the same compound, the “Round 3 (%)” value ([3]; share of phage inserts, round 3) was 100%.

CGTGCAVECEVVC was tested, and the “enrichment of phage binding on SK-RC-49/APA cells relative to SK-RC-49 parental cells” value ([1]; input 10^9 TU, not shown) was “no selective binding” and the “Round 2 (%)” value [3] was 5%.

`COC(=O)C[C@H](NC(=O)[C@H](C)NC(=O)[C@@H](NC(=O)OCc1ccccc1)C(C)C)C(=O)CF` [zVAD, reference compound] (Cbz-Val-Ala-Asp(OMe)-CH2F) was tested, and the “inhibition of VISY chimeric peptide-induced apoptosis” value ([4]; caspase inhibitor added at the same time as the VISY chimeric peptide) was “up to 70%”.

For VVISYSMPD, the “effect on binding of Annexin V to GST-β5” value [5] was “blocked” and the “induction of apoptosis (chromatin fragmentation)” value ([4]; 15 μM, 2-4 hours, FIG. 21) was “Neither VISY or penetratin alone induced apoptosis”.

For “RAPGGVR [placenta targeting peptide, phage clone PC]”, the “frequency of phage clone in round III” value [6] was under 1%, the “frequency of phage clone in round IV” value [6] was 8.5% and the “placental homing of phage compared to control fd-tet phage” value [7] was “substantially higher placental localization”.

CPKVCPRECESNC was tested, and the “enrichment in tumor xenografts compared to brain tissue” value [2] was 4 fold and the “Round 2 (%)” value [3] was 5%.

With “TPKTSVT: placenta targeting peptide, tested displayed on phage clone PA” the effect on pregnancy [8] was “slight effect on pregnancy” and the “effect on fetal development” value [8] was “substantially interfered with fetal development”.

“GST-PA: PA peptide (TPKTSVT) attached to GST (glutathion S-transferase)” was tested, and the “Peptide Effect on Embryo” value ([8]; GST conjugates-I, 1 mouse sc (predominantly) or iv ~every other day, day 4-day 17, 10 times, Total 800 μg) was “Pregnancy termination”.

In the case of “PF-FITC: placenta homer PF peptide (YIRPFTL) attached to FITC (also: FITC conjugate, site not given here)”, the “Peptide Effect on Embryo” value [8, 10] was “Development delay,; also recorded: toxicity”, the “Pregnancy Outcome” value [8, 10] was 21 d, 1 dead pup and the “Peptide Effect on Embryo” value [8, 11] was “Pregnancy termination”. The “Pregnancy Outcome” value [8, 11] was “No fetuses inside”.

With “RGEVLWS [fat-targeting peptide, fat homing phage clone FC]” the “homing to adipose tissue compared to control fd-tet phage” value [9] was “some elevation of homing to adipose tissue”.

In the case of “YIRPFTL [placenta targeting peptide, phage clone PF]”, the “frequency of phage clone in round III” value [6] was 2.1%, the “frequency of phage clone in round IV” value [6] was 5.3% and the “placental homing of phage compared to control fd-tet phage” value [7] was “not substantially enriched in placenta”.

For CSGLCTVQCLEGC, the “Round 2 (%)” value [3] was 5%.

CSMMCLEGCDDWC was tested, and the “Round 2 (%)” value [3] was 5%.

For VGLHARA [placenta targeting peptide], the “frequency of phage clone in round III” value [6] was 4.2% and the “frequency of phage clone in round IV” value [6] was 7.4%.

For “PA-FITC: placenta homer PA peptide (TPKTSVT) attached to FITC (fluorescein isothiocyanate) (also: FITC conjugate, site not given here)”, the “Peptide Effect on Embryo” value [8, 10] was “No effect”, the “Pregnancy Outcome” value [8, 10] was 19 d, 8 normal pups and the “Peptide Effect on Embryo” value [8, 11] was “Pregnancy termination”. For the same compound, the “Pregnancy Outcome” value [8, 11] was “No fetuses inside”.

For “KGGRAKD [fat-targeting peptide, fat homing phage clone FA]”, the “homing to adipose tissue compared to control fd-tet phage” value [9] was “some elevation of homing to adipose tissue”.

In the case of RMDGPVR [placenta targeting peptide], the “frequency of phage clone in round III” value [6] was 3.1% and the “frequency of phage clone in round IV” value [6] was 8.5%.

In the case of TPKTSVT, the “frequency of phage clone in round III” value [6] was 7.4%, the “frequency of phage clone in round IV” value [6] was 8.5% and the “placental homing of phage compared to control fd-tet phage” value [7] was “more than an order of magnitude greater”.

In the case of CAVACWADCQLGC, the “Round 2 (%)” value [3] was 5%.

For “YIRPFTL: placenta targeting peptide, phage clone PF”, the effect on pregnancy [8] was “slight effect on pregnancy” and the “effect on fetal development” value [8] was “substantially interfered with fetal development”.

For “TREVHRS [adipose targeting peptide, fat homing phage clone FE]”, the “homing to adipose tissue compared to control fd-tet phage” value [9] was “some elevation of homing to adipose tissue”.

“LGLRSVG [placenta targeting peptide, phage clone PE]” was tested, and the “frequency of phage clone in round III” value [6] was under 1%, the “frequency of phage clone in round IV” value [6] was 5.3% and the “placental homing of phage compared to control fd-tet phage” value [7] was “not substantially enriched in placenta”.

With “CARAC-FITC: CARAC peptide (SEQ ID NO:46) attached to FITC, non-placental targeting control (cysteine pairing not given here; also: attached to FITC, site not given here) [reference compound]” the “Peptide Effect on Embryo” value [8, 10] was “No effect”, the “Pregnancy Outcome” value [8, 10] was 18 d, 5 normal pups and the “Peptide Effect on Embryo” value [8, 11] was “Slight toxicity?”. For the same compound, the “Pregnancy Outcome” value [8, 11] was 20 d, 5 pups, 1-dead.

With “VMGSVTG [fat-targeting peptide, fat homing phage clone FX]” the “homing to adipose tissue compared to control fd-tet phage” value [9] was “several orders of magnitude higher adipose localization”.

Source: patent US8710017B2, “Human and mouse targeting peptides identified by phage display” (priority 2000, dated 2014)
